Assay results as given in patent US11180501B2, “Crystal form of β-lactamase inhibitor and preparation method therefor” (priority 2017, dated 2021).
In brackets after ≈: the same amount, converted by molar mass. Read-outs that look alike come from different tables or passages of the source.

How the values were obtained:
[1] = Thermal gravimetric analysis (TGA); type: physicochemical
Protocol: 1.3 Thermal Gravimetric Analyzer (TGA)
Instrument Model: TA Q5000 thermal gravimetric analyzer
Detection method: samples (2 mg to 5 mg) were placed in a TGA platinum crucible for detection, and heated from room temperature to 210° C. with a heating rate of 10° C./min under the condition of 25 mL/min N2.

[2] = Hygroscopicity by dynamic vapor sorption (DVS); type: physicochemical
Protocol: 1.4 Dynamic Vapor Sorption (DVS) Instrument model: SMS DVS Advantage dynamic vapor sorption analyzer Detection conditions: samples (10 mg to 15 mg) were placed in a DVS sample tray for detection. The detailed DVS parameters are as follows: Temperature: 25° C. Equilibrium: dm/dt=0.01%/min (shortest: 10 min, longest: 180 min) Drying: 120 minutes at 0% RH RH (%) gradient for testing: 10% RH (%) gradient range for testing: 0%-90%-0% The hygroscopicity was evaluated using the following scales: [table] Experimental Method: a sample (10-15 mg) was placed in a DVS sample tray for testing, and analyzed by dynamic vapor sorption (DVS) method.

[3] = Solubility test of the crystal form A; type: physicochemical; settings: thermodynamic from solid, room temperature
Protocol: Experimental Method: about 2.0 mg sample was weighed and placed into a 1.5 mL borosilicate glass bottle, followed by addition of the following solvents with a pipetting gun respectively, and appropriate ultrasonic treatment was performed for dissolving. The test was carried out at room temperature, and the dissolution was detected by naked eye.

[4] = system: NDM-1 carbapenemase-producing Klebsiella Pneumoniae; assay: In vitro synergistic inhibitory concentration (SIC) assay, broth microdilution MIC; type: cell-based; settings: for MIC50 / MIC90: Klebsiella pneumoniae; for MIC50 / MIC90 / drug resistance rate / sensitive rate / MIC range: NDM-1, 8 strains; for MIC50 / MIC90 / MIC range: enzyme inhibitor fixed at 4 g/mL (so in the source); for drug resistance rate / sensitive rate: by the S/R criteria
Protocol: (§1) The minimum inhibitory concentration (MIC) of the compound of formula (I) against clinically isolated carbapenemase-producing strains was determined by the broth microdilution method.
(§2) 1. Drug susceptibility test: the MIC of commonly used antibacterial drugs against clinically isolated bacteria was determined by the broth microdilution method according to the antimicrobial susceptibility test method described in the 2016 edition of the U.S. Clinical and Laboratory Standards Institute (CLSI) document.
(§3) 2. Strains: 8 KPC-2 carbapenemase-producing strains, 8 NDM-1 metalloenzyme-producing strains, 6 OXA carbapenemase-producing strains, and all strains were clinically isolated Klebsiella pneumoniae.
(§4) 4. Quality control strains: the quality control strains for the drug susceptibility test included Escherichia coli ATCC 25922 and ATCC 35218.

[5] = system: OXA-181 carbapenemase-producing Klebsiella Pneumoniae; assay: as above; type: cell-based; settings: for MIC50 / MIC90: Klebsiella pneumoniae; for drug resistance rate / sensitive rate: by the S/R criteria
Protocol: as §1, §2
2. […]
as §4

[6] = system: KPC-2 carbapenemase-producing Klebsiella Pneumoniae; assay: as above; type: cell-based; settings: for drug resistance rate / sensitive rate: by the S/R criteria; for MIC50 / MIC90: Klebsiella pneumoniae
Protocol: as §1, §2, §3, §4

[7] = system: Klebsiella pneumoniae (ATCC BAA-1705, KPC-2); assay: Mouse lung infection model; type: in vivo; settings: female CD-1 mice, ip, with ceftazidime, FIG. 5
Protocol: Female CD-1 mice of about 7 weeks old, weighing 26-28 g; cyclophosphamide was injected at a dose of 150 mg/kg 4 days before infection, and further 100 mg/kg 1 day before infection; the bacteria for infection was Klebsiella pneumoniae (ATCC BAA-1705, KPC-2). The compound of formula (I) and the reference compound OP-0595 were synthesized in the laboratory.
Female CD-1 mice were infected with Klebsiella pneumoniae by intranasal instillation. Each mouse was instilled with 50 μL of bacterial liquid through nasal cavity at a dose of 3.14E+07 CFU per mouse. At 2 h, 4 h, 6 h and 8 h after infection, each group of mice were treated with a corresponding compound or a combination of compounds by intraperitoneal injection.
At 10 h after infection, the mice in groups 1, 2 and 3 were euthanized, and the lungs were taken out and placed in 50 mL centrifuge tubes containing 10 mL of sterile normal saline, the tubes were placed on wet ice and transferred to BSL-2 laboratory for CFU counting. […]
The lungs were ground with an IKA T10 homogenizer (the maximum speed was 20S, repeated once). […] After 24 hours, the plate was taken out and the number of single colonies grown in each homogenate with a gradient dilution on the plate was counted, and the amount of bacterial load in the lung of each mouse was calculated.

pKa of side-chain group = type: physicochemical; settings: guanidinoxy group
[8] = Study on polymorphism, solvent scheme 1 (suspension); type: physicochemical; settings: 40° C. in the dark for 2 days, XRPD
Protocol: 1. Three samples of about 35 mg of the compound of formula (I) were weighed and placed into 1.5 mL borosilicate glass bottles, respectively, followed by addition of 200 μL of solvent (see Table 2 for the solvent scheme). The obtained mixture was mixed evenly with ultrasound and then placed on a thermostatic oscillator, stirred at 40° C. in the dark for 2 days, and centrifuged quickly. The obtained solid was subjected to XRPD detection (wet product), and then dried in a vacuum dryer at 30° C. for about 15 hours. The obtained dry product was subjected to XPRD detection (dry product).

[9] = Study on polymorphism, solvent scheme 2 (dissolved, evaporated to dryness); type: physicochemical; settings: 40° C. 2 days, XRPD
Protocol: 2. Three samples of about 35 mg of compound of formula (I) were weighed and placed into 1.5 mL borosilicate glass bottles, respectively, followed by addition of 600 μL of a solvent (see Table 3 for the solvent scheme). The obtained mixture was mixed evenly with ultrasound and then placed on a thermostatic oscillator, stirred at 40° C. in the dark for 2 days. Then the samples was placed into a fume hood and evaporated to dryness. The obtained samples were subjected to XRPD detection (wet product). The samples were placed in a vacuum dryer and dried at 30° C. for about 15 hours. The obtained dried samples were subjected to XRPD detection (dry product).

[10] = OXA-181, 7 strains, enzyme inhibitor fixed at 4 g/mL (so in the source)
[11] = KPC-2, 8 strains, enzyme inhibitor fixed at 4 g/mL (so in the source)

In the case of `N=C(N)NOCCONC(=O)C1CCC2CN1C(=O)N2OS(=O)(=O)O` (stereo not drawn), the thermal stability ([1]; TGA) is reported as “good thermal stability”, the TGA weight loss ([1]; heated to 194.61° C.) is reported as 0.5689% and the “hygroscopic weight gain ΔW” value ([2]; DVS, 25° C./80% RH) is reported as 0.2910%. For the same compound, the hygroscopicity scale ([2]; DVS, 25° C./80% RH) was “low hygroscopicity”, the “crystal form after DVS (XRPD)” value ([2]; after DVS test) was “the crystal form has not changed” and the solubility ([3]; aqueous with cosolvent or surfactant or cyclodextrin, Acetone-water (1:2)) was 20.5 to 34.2 mg/mL (≈ 53.6 to 89.4 mM). The solubility ([3]; aqueous with cosolvent or surfactant or cyclodextrin, Acetonitrile-water (1:1)) was greater than 103 mg/mL, the solubility ([3]; aqueous with cosolvent or surfactant or cyclodextrin, Ethanol-water (1:1)) was 10.1 to 20.2 mg/mL (≈ 26.4 to 52.8 mM) and the solubility ([3]; aqueous with cosolvent or surfactant or cyclodextrin, Ethanol-water (3:1)) was less than 2 mg/mL. The solubility ([3]; aqueous with cosolvent or surfactant or cyclodextrin, Isopropanol-water (1:1)) was 6.8 to 10.2 mg/mL (≈ 17.8 to 26.7 mM), the solubility ([3]; aqueous with cosolvent or surfactant or cyclodextrin, Methanol-water (1:1)) was 4.1 to 5.2 mg/mL (≈ 10.7 to 13.6 mM) and the solubility ([3]; aqueous with cosolvent or surfactant or cyclodextrin, Methanol-water (3:1)) was 2.1 to 2.6 mg/mL (≈ 5.49 to 6.8 mM). It also gave a solubility ([3]; organic solvent or mixture, 1,4-Dioxane) of less than 2.1 mg/mL, a solubility ([3]; organic solvent or mixture, 2-Methyltetrahydrofuran) of less than 2 mg/mL and a solubility ([3]; organic solvent or mixture, Acetone) of less than 1.9 mg/mL. It also gave a solubility ([3]; organic solvent or mixture, Acetonitrile) of less than 1.9 mg/mL, a solubility ([3]; organic solvent or mixture, Butanone) of less than 2 mg/mL and a solubility ([3]; organic solvent or mixture, Cyclohexane) of less than 2.1 mg/mL. It also gave a solubility ([3]; organic solvent or mixture, Ethanol) of less than 1.9 mg/mL, a solubility ([3]; organic solvent or mixture, Ethyl acetate) of less than 2 mg/mL and a solubility ([3]; organic solvent or mixture, Isopropanol) of less than 2 mg/mL. The solubility ([3]; organic solvent or mixture, Isopropyl acetate) was less than 2 mg/mL, the solubility ([3]; organic solvent or mixture, Methanol) was less than 1.9 mg/mL and the solubility ([3]; organic solvent or mixture, Methyl isobutyl ketone) was less than 2 mg/mL. The solubility ([3]; organic solvent or mixture, Methyl tert-butyl ether) was less than 2 mg/mL, the solubility ([3]; organic solvent or mixture, Tetrahydrofuran) was less than 2 mg/mL and the solubility ([3]; organic solvent or mixture, Toluene) was less than 2 mg/mL. The solubility ([3]; organic solvent or mixture, n-Butanol) was less than 2 mg/mL, the solubility ([3]; organic solvent or mixture, n-Heptane) was less than 2 mg/mL and the solubility ([3]; Water) was 10.2 to 20.4 mg/mL (≈ 26.7 to 53.4 mM).

Work on `C[C@H]1[C@H](NC(=O)/C(=N\OC(C)(C)C(=O)O)c2csc(N)n2)C(=O)N1S(=O)(=O)O` [Aztreonam] yielded an MIC50 [4] of 64 mg/L.

With `CC(C)(O/N=C(\C(=O)N[C@@H]1C(=O)N2C(C(=O)[O-])=C(C[n+]3ccccc3)CS[C@H]12)c1csc(N)n1)C(=O)O` [Ceftazidime] the MIC50 [5, 10] was greater than 128 mg/L, the MIC90 [5, 10] was greater than 128 mg/L and the drug resistance rate ([5]; OXA-181, 7 strains) was 100. For the same compound, the sensitive rate ([5]; OXA-181, 7 strains) was 0, the MIC50 [4] was greater than 128 mg/L and the MIC90 [4] was greater than 128 mg/L. For the same compound, the drug resistance rate [4] was 100, the sensitive rate [4] was 0 and the MIC range [4] was greater than 128 mg/L. It also gave a drug resistance rate ([6]; KPC-2, 8 strains) of 100, a sensitive rate ([6]; KPC-2, 8 strains) of 0 and an MIC range [6, 11] of 64 to 128 mg/L. For the same compound, the MIC50 [6, 11] was greater than 128 mg/L and the MIC90 ([6]; KPC-2, 8 strains, enzyme inhibitor fixed at 4 g/mL (so in the source), read-out: MIC90) was greater than 128 mg/L.

With `C[C@@H](O)[C@H]1C(=O)N2C(C(=O)O)=C(S[C@@H]3CN[C@H](C(=O)N(C)C)C3)[C@H](C)[C@H]12` [Meropenem] the MIC50 [5, 10] was 0.5 mg/L, the MIC90 [5, 10] was 2 mg/L and the drug resistance rate ([5]; OXA-181, 7 strains) was 0. The sensitive rate ([5]; OXA-181, 7 strains) was 85.7, the MIC range [5, 10] was 0.5 to 2 mg/L and the MIC50 [4] was 4 mg/L. For the same compound, the MIC90 [4] was 32 mg/L, the drug resistance rate [4] was 75 and the sensitive rate [4] was 0. The MIC range [4] was 2 to 32 mg/L, the drug resistance rate ([6]; KPC-2, 8 strains) was 100 and the sensitive rate ([6]; KPC-2, 8 strains) was 0. It also gave an MIC90 [6] of 128 mg/L and an MIC50 [6, 11] of 64 mg/L.

With `N=C(N)NOCCONC(=O)C1CCC2CN1C(=O)N2OS(=O)(=O)O` (stereo not drawn) [the compound of formula (I)] the “reduction of the amount of bacterial load in the lung versus the reference group of OP-0595” value ([7]; at two different doses (25 & 6.25 mpk; 50 & 12.5 mpk)) was 0.5-1.5 logs, the “potency compared with OP-0595” value [7] was “significantly more potent than the reference compound OP-0595” and the pKa (pKa of side-chain group) was 8.83. The Crystal form ([8]; Acetone) was “Crystal form A”, the Crystal form ([8]; Acetonitrile) was “Crystal form A” and the Crystal form ([8]; Cyclohexane) was “Crystal form A”. For the same compound, the Crystal form ([8]; Ethanol) was “Crystal form A”, the Crystal form ([8]; Ethanol-water (volume ratio 1:1)) was “Crystal form A” and the Crystal form ([8]; Ethanol-water (volume ratio 3:1)) was “Crystal form A”. The Crystal form ([8]; Ethyl acetate) was “Crystal form A”, the Crystal form ([8]; Isopropanol-water (volume ratio 1:1)) was “Crystal form A” and the Crystal form ([8]; Methanol) was “Crystal form A”. For the same compound, the Crystal form ([8]; Methanol-water (volume ratio 1:1)) was “Crystal form A”, the Crystal form ([8]; Methanol-water (volume ratio 3:1)) was “Crystal form A” and the Crystal form ([8]; Tetrahydrofuran) was “Crystal form A”. For the same compound, the Crystal form ([8]; Water) was “Crystal form A”, the “antibacterial activity (conclusion)” value ([5]; in combination with an antibiotic, OXA-181 type) was “strong antibacterial activity” and the “inhibitory activity compared with avibactam” value ([4]; NDM-1 type carbapenemase-producing bacteria) was “significantly better than that of avibactam”. The “antibacterial activity (conclusion)” value ([4]; in combination with an antibiotic, NDM-1 type) was “strong antibacterial activity”, the “antibacterial activity (conclusion)” value ([6]; in combination with an antibiotic, KPC-2 type) was “strong antibacterial activity” and the Crystal form ([9]; Acetone-water (volume ratio 1:2)) was “Crystal form A”. For the same compound, the Crystal form ([9]; Acetonitrile-water (volume ratio 1:1)) was “Crystal form A”.
